SMILES strings stand for the structures. Like-named read-outs stand apart in the source and are kept apart here.

One data set deals with human PBMCs. The data set can be described thus: Mixed Lymphocytes Reaction (MLR) with human PBMCs (IFN-γ, TNF-α, IL-6). It is filed as cell-based. Conditions: PBMC, 144 h, two-way MLR, 6 days, 0.05 μM, negative = induction. How it is done:
In order to study HDAC6 inhibitors ability to inhibit the activation of allogenic T CD4+ cells, a Mixed Lymphocytes Reaction (MLR or mixed lymphocyte culture, CLM) assay was performed. This is a reaction involving blast transformation of in vitro cultured lymphocytes in the presence of allogeneic lymphocytes. There is the so-called “two-way” reaction wherein the two lymphocyte populations stimulate each other to proliferate, and the so-called “one way” reaction, wherein the proliferation of one of the two populations is inhibited by mitomycin C or irradiation, these cells provide proliferation stimulus (stimulator) to the so-called “responder” cells.
Human peripheral blood mononuclear cells (PBMCs) used in MLR were obtained by Ficoll gradient separation from Buffy Coat of healthy donors.
We used a two-way MLR. The cells from the two donors were plated at 1:1 ratio (allogenic stimulation) to the final concentration of 2×10^5 per well in U-bottom 96 well plates in RPMI 1640 medium with 10% FBS and antibiotics. As a control we individually plated the cells from each donor (singenic stimulus). The experiment for each inhibitor was set in deduplicate for allogeneic stimuli and in quintuplicate for singenic stimuli. The cells were cultured for 6 days in an incubator at 37° C.
After 6 days the effect of the test compounds was evaluated by measuring the production of pro-inflammatory cytokines recognized to be characteristics of this assay.
For this purpose, the culture supernatant was harvested and used for IFN-γ, TNF-α and IL-6 inflammatory cytokine assay.
The JAK inhibitor ruxolitinib was used as the active reference compound in the test.
Values in the table indicate the inhibition percentages. Negative values indicate an induction.

In data set [1] the test system is B 697 promyelocytic cell line. The data set can be described thus: Cytotoxicity on 697 cell line (CellTiter 96). It is filed as cell-based. The following applies: 72 hours incubation, read-out: 697 TOXICITY
An outline of the steps:
(§1)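 Cells seeded (2×10^4/well for 697, 5×10^5/well for PBMCs); compounds added after 24 h at 1–10000 nM (697) or 1.5–10000 nM (PBMCs) and incubated 72 h. Viability read by CellTiter 96 Aqueous One tetrazolium assay of mitochondrial function.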

The nature of data set [2]: Stability to Phase I metabolism in human S9 liver fraction. The following applies: human, 90 min, pH 7.4. It is filed as in vitro ADME. The method in brief:
(§2)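 Compounds were incubated with rat or human liver S9 fraction at 37 °C for up to 90 min. Reactions were quenched on ice with acidified acetonitrile and analysed by HPLC-UV or LC-MS/MS. Percent remaining versus time zero and intrinsic clearance were calculated.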

Data set [3] in a line: Stability to Phase I metabolism in rat S9 liver fraction. It is filed as in vitro ADME. The following applies: after 90 min, 37° C. An outline of the steps: as §2
A short description of another data set: Stability in rat plasma. It is filed as in vitro ADME. The following applies: after 4 hours, 37° C. An outline of the steps: (§3)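 Compounds incubated at 37° C in rat or human plasma at 50 μM (UV/HPLC) or 1 or 2 μM (LC-MS/MS) for 0–4 h. Reaction stopped with acidified acetonitrile on ice; percent remaining versus initial amount and plasma half-life calculated.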

Data set [4] concerns peripheral blood mononuclear cells (PBMCs). The data set can be described thus: Cytotoxicity on PBMCs (CellTiter 96). It is filed as cell-based. The following applies: PBMC, 72 h; read-out: PBMC TOXICITY (72 h). An outline of the steps:
as §1

Data set [5] in a line: Stability in human plasma. The following applies: after 4 hours, 37° C. It is filed as in vitro ADME. The method in brief: as §3
The target of another data set is T1, recombinant human HDAC6 (Homo sapiens, UniProt Q9UBN7).
T1 sequence (Q9UBN7 1-1215): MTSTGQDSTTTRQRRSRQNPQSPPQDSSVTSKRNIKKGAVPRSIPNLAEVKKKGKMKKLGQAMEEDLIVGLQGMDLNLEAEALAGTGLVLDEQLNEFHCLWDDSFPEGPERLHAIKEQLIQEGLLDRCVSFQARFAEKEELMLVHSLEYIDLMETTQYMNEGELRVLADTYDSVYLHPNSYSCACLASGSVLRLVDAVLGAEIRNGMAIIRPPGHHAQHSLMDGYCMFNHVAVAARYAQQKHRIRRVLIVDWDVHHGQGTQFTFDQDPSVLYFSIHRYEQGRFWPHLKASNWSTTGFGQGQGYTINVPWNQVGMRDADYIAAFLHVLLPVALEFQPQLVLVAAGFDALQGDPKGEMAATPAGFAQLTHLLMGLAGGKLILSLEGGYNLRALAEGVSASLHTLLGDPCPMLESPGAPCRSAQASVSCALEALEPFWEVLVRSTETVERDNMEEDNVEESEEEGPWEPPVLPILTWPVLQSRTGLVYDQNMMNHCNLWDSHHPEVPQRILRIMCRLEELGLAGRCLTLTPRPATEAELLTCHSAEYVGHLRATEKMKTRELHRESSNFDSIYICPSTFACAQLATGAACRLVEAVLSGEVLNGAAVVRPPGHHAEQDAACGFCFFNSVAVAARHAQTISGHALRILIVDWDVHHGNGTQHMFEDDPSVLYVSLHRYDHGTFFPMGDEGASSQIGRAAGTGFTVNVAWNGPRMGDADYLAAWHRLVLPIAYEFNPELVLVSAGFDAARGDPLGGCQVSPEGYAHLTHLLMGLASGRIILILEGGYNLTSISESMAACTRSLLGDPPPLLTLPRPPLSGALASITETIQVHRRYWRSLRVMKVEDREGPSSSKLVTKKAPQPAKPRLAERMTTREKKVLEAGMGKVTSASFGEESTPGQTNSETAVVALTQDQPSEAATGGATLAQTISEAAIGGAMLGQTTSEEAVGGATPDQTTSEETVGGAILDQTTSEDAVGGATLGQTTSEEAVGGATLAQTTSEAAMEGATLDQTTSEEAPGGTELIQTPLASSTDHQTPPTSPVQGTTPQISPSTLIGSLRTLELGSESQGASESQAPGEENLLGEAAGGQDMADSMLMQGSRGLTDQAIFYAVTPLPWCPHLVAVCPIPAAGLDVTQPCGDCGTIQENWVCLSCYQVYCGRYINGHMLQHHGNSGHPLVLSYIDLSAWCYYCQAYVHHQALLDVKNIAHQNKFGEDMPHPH
The data set can be described thus: Enzymatic screening on recombinant human HDAC6. Conditions: Table 2; read-out: HDAC6 IC50. It is filed as biochemical. The method in brief:
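Recombinant human enzyme was incubated with compound at 30 °C for an isoform-dependent time, then substrate (FLUOR DE LYS, FLUOR DE LYS-Green or trifluoroacetyl-L-lysine) was added as a 2× solution in 25 mM Tris-HCl pH 8, 130 mM NaCl, 0.05% Tween-20, 10% glycerol. The deacetylation reaction then proceeded at 30 °C.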

For orientation: inhibition means how much of the control response was suppressed. As for `N#CC[C@H](C1CCCC1)n1cc(-c2ncnc3[nH]ccc23)cn1` [ruxolitinib, reference compound], the figures for the inhibition at 0.05 µM in the data set on human PBMCs (read-out: MLR IFN-γ inhibition percentage), with human PBMCs (read-out: MLR IL-6 inhibition percentage) and in the data set with human PBMCs (read-out: MLR TNF-α inhibition percentage) were 87.9%, 73.3% and 61.2%, respectively.
For `CN(C)S(=O)(=O)c1ccc(F)c(-c2nnc(Sc3ccc(C(=O)NO)cc3)n2C)c1` [compound 76], the IC50 in data set [1] was > 10 µM; in data set [4] it was > 10 µM; at recombinant human HDAC6, 0.028 µM. In addition, the “residual percentage in human S9 fraction” value in data set [2] came to 77%. For the same compound, in data set [3], the “residual percentage in rat S9 fraction” value worked out at 76%. Moreover, the “residual percentage in rat plasma” value in “Stability in rat plasma” is listed as 98%. Moreover, in data set [5], the “residual percentage in human plasma” value amounted to 96%.
`CN(C)S(=O)(=O)c1cccc(-c2nnc(Cc3ccc(C(=O)NO)cc3)o2)c1` [comp. 3, 4-((5-(3-(N,N-dimethylsulfamoyl)phenyl)-1,3,4-oxadiazol-2-yl)methyl)-N-hydroxybenzamide]: the IC50 in data set [1] turned out to be 2.88 µM; in data set [4], 0.735 µM; on recombinant human HDAC6 it was 0.011 µM. In addition, the “residual percentage in human S9 fraction” value in data set [2] is 93%. Also, the “residual percentage in rat S9 fraction” value in data set [3] was 66%. For the same compound, the “residual percentage in rat plasma” value in “Stability in rat plasma” is on record as 79%. Moreover, in data set [5], the “residual percentage in human plasma” value turned out to be 100%.
As for `O=C(NO)c1ccc(Cc2noc(-c3ccccc3)n2)cc1` [compound 189, 4-[(5-phenyl-1,2,4-oxadiazol-3-yl)methyl]benzenecarbohydroxamic acid], the IC50 was determined as 0.291 µM in data set [1], 1.05 µM in data set [4] and 0.009 µM at recombinant human HDAC6. The “residual percentage in human S9 fraction” value in data set [2] was determined as 72%. In data set [3], the “residual percentage in rat S9 fraction” value is 5%. In the data set “Stability in rat plasma”, the “residual percentage in rat plasma” value came to 78%. Besides, the “residual percentage in human plasma” value in data set [5] turned out to be 100%.

These data come from US11351178B2, “Selective HDAC6 inhibitors” (ITALFARMACO S.P.A., priority 2017, dated 2022).
